Results published in US7820689B2, “Methods and compositions for preventing or treating cardiovascular disease” (priority 2006, dated 2010).

How the values were obtained:
macrophage NADPH oxidase = experiment: Macrophage NADPH oxidase activity after LPS, lucigenin chemiluminescence; assay type: cell-based, human; details: LPS alone 3,310,000±1,670,000
Description: THP-1 cell culture was pretreated for 1 hour with the indicated concentrations of DM before stimulation with 100 ng/mL LPS. Lysis buffer was added to the cells and centrifuged. The supernatant was discarded and the pellet was resuspended. NADPH oxidase activity was measured by mixing 30 μg protein, 5 μM lucigenin, and 100 μM NADPH. Chemiluminescence was determined every 10 seconds for 15 minutes. Data are presented as mean±SD (n=8-15). ***P<0.001 compared with the LPS-treated cells.

[1] = tested on: superoxide production in left carotid arteries; experiment: Superoxide in left common carotid artery of apoE-deficient mice, DHE staining; assay type: in vivo
Description: Representative photomicrographs of the […] sections in apoE-deficient mice were treated daily with water only (A) or DM 5 mg/kg/day (B), 10 mg/kg/day (C), 20 mg/kg/day (D) or 40 mg/kg/day (E) for 10 weeks. […] The results are representative of 4 independent experiments with 6-8 independently analyzed mice/group. (bar=50 μm)
(§1) Having established the DM inhibitory effect on macrophage activation and NADPH oxidase, we next examined the functional consequences of which in vivo. […] Sections of left carotid arteries from the mice were stained with DHE and then imaged with a laser scanning confocal microscope.

[2] = tested on: superoxide in the thoracic aorta; experiment: Superoxide production in thoracic aorta of apoE-deficient mice, lucigenin chemiluminescence; assay type: in vivo; details: 10 weeks, controls 534,000±145,000
Description: ApoE-deficient mice were treated daily with DM 5 mg/kg/day (n=9), 10 mg/kg/day (n=9), 20 mg/kg/day (n=9) or 40 mg/kg/day (n=11) for 10 weeks. Production of superoxide in PMN (1×10^6 cells/mL PBS) (A) was measured by lucigenin-enhanced chemiluminescence. The results are expressed as mean±SD. (P<0.05, control versus 10 mg/kg/day; P<0.001, control versus 20 mg/kg/day and 40 mg/kg/day). Production of superoxide in the thoracic aorta (B) was also measured by lucigenin-enhanced chemiluminescence. The results are expressed as mean±SD. (P<0.05, control versus 10 mg/kg/day and 40 mg/kg/day; P<0.01, control versus 20 mg/kg/day).
as §1

[3] = tested on: NADPH oxidase-deficient mice; details: Zhang et al. 2004; cited from earlier work
[4] = tested on: CD45-positive cells in lungs; experiment: Pulmonary inflammatory cell (CD45-positive) infiltration in LPS-treated mice, immunofluorescence; assay type: in vivo; details: LPS only 103±16
Description: (§2) All mice then received 20 mg/kg LPS by intraperitoneal injection. Blood samples were obtained at 6 hours after LPS injection from a catheter placed in the left carotid artery. Blood samples were centrifuged, and the plasma TNF-α levels were measured by ELISA. Lungs were harvested from the animals 6 hours after LPS injection in each group as described above. The tissues were fixed in 4% paraformaldehyde and embedded in paraffin for histopathological examination. The presence of inflammatory cells in lungs was determined by immunofluorescence. The sections were incubated with rat monoclonal antibody against mouse CD45, a leukocyte common antigen (1:50 dilution, Pharmingen). After washing, fluorescein isothiocyanate-conjugated sheep […] immunoglobulin (Amersham Pharmacia Biotech) was applied as a secondary antibody. […] The total CD45-positive cell number was counted in five randomly selected sections under high power field magnification (400×) for each mouse. Oxidative fluorescent microtopography with the oxidative fluorescent dye dihydroethidium (DHE) was used to evaluate the in situ production of superoxide in aorta. Aortas were harvested from the animals at 6 hours after LPS injection in each group as described above. Unfixed frozen ring segments were cut into 30-μm-thick sections and placed on a glass slide. DHE (10 μM) was topically applied to each tissue section and a cover slip was applied. Slides were incubated in a light-protected humidified chamber at 37° C. for 30 minutes. Fluorescence was detected with a laser scanning confocal microscope (Leica Microsystems, Germany) with excitation at 488-nm and detection at 585-nm using a long-pass filter.

plasma TNF-α = experiment: Plasma TNF-α in LPS-treated FVB mice (ELISA); assay type: in vivo; details: 6 h, LPS only 576.1±43.6
Description: as §2

[5] = tested on: superoxide production in aorta; experiment: Superoxide in aorta of LPS-treated mice, DHE oxidative fluorescent microtopography; assay type: in vivo
Description: as §2, with “Aortas were harvested from the animals at 6 hours after LPS injection in each group as described above. Unfixed frozen ring segments were cut into 30-μm-thick sections and placed on a glass slide. DHE (10 μM) was topically applied to each tissue section and a cover slip was applied. Slides were incubated in a light-protected humidified chamber at 37° C. for 30 minutes.” left out

| Structure (SMILES) | NADPH oxidase activity (macrophage NADPH oxidase; DM 0.01 μM pretreatment) | NADPH oxidase activity (macrophage NADPH oxidase; DM 0.1 μM pretreatment) | NADPH oxidase activity (macrophage NADPH oxidase; DM 1 μM pretreatment) | DHE staining (superoxide), FIG. 14 ([1]; DM 5, 10, 20 or 40 mg/kg/day for 10 weeks vs water only) | DHE fluorescence intensity in sections of left carotid arteries (superoxide) ([1]; DM 10, 20, and 40 mg/kg/day for 10 weeks) | superoxide in the thoracic aorta ([2]; 5 mg/kg, P=NS) | superoxide in the thoracic aorta ([2]; 10 mg/kg) | superoxide in the thoracic aorta ([2]; 20 mg/kg) | superoxide in the thoracic aorta ([2]; 40 mg/kg) | anti-inflammatory effect [3] | infiltration of inflammatory cells in the lungs (CD45-positive cell number) ([4]; 10 mg/kg i.p. before LPS) | infiltration of inflammatory cells in the lungs (CD45-positive cell number) ([4]; 20 mg/kg i.p. before LPS) | infiltration of inflammatory cells in the lungs (CD45-positive cell number) ([4]; 25 mg/kg i.p. before LPS) | plasma TNF-α level (plasma TNF-α; 10 mg/kg i.p. before 20 mg/kg LPS) [pg/mL] | plasma TNF-α level (plasma TNF-α; 20 mg/kg i.p. before 20 mg/kg LPS) [pg/mL] | plasma TNF-α level (plasma TNF-α; 25 mg/kg i.p. before 20 mg/kg LPS) [pg/mL] | DHE staining of aorta (superoxide), FIG. 5 ([5]; 20 mg/kg naloxone pretreatment 1 hour before LPS) | DHE fluorescence intensity in aortic sections (superoxide) ([5]; 10, 20, and 25 mg/kg pretreatment, LPS-treated mice) |
| --- | --- | --- | --- | --- | --- | --- | --- | --- | --- | --- | --- | --- | --- | --- | --- | --- | --- | --- |
| COc1ccc2c(c1)[C@]13CCCC[C@@H]1[C@H](C2)N(C)CC3 [DM, (+)-3-methoxy-17-methyl-9α,13α,14α-morphinan] | 1,360,000±860,000 RLU/15 min/mL | 1,280,000±540,000 RLU/15 min/mL | 1,400,000±730,000 RLU/15 min/mL | staining was much more reduced | significantly reduced the increase of fluorescence intensity | 424,000±141,000 RLU/15 min | 377,000±97,000 RLU/15 min | 341,000±94,000 RLU/15 min | 379,000±84,000 RLU/15 min | anti-inflammatory effect was not observed | – | – | – | – | – | – | – | – |
| C=CCN1CC[C@]23c4c5ccc(O)c4O[C@H]2C(=O)CC[C@@]3(O)[C@H]1C5 [Naloxone, 17-allyl-4,5α-epoxy-3,14-dihydroxymorphinan-6-one] | – | – | – | – | – | – | – | – | – | – | 74±10 | 58±15 | 62±12 | 452.9 ± 55.0 | 251.9 ± 59.6 | 288.0 ± 33.9 | staining was much more reduced | significantly reduced the increase of fluorescence intensity |
